Data as given in publication PMC3391680, “Selective and Specific Inhibition of the Plasmodium falciparum Lysyl-tRNA Synthetase by the Fungal Secondary Metabolite Cladosporin” (Cell Host & Microbe, 2012).
Where two headings read alike, the source gives them in different places. *1 amine or outer side, *2 acyl side, *3 side chain or, on linkers, in order; H or OH if unused. Where a SMILES comes first, the peptide text is derived from it. [ ]: non-standard residue; d: D form. X1 = CC(C)([C@@H]1CO1)n1cc([C@@H](O)[C@H](CC(=O)[*:2])N[*:1])c2ccccc21; NMeLeu(5-OH,4R) = CN[C@@H](C[C@@H](C)CO)C(=O)O; Nle(4R-Me-5-ene) = C=C[C@H](C)C[C@H](N)C(=O)O; Phe(βR-OMe) = CO[C@H](c1ccccc1)[C@H](N)C(=O)O; NMeL = CN[C@@H](CC(C)C)C(=O)O

Tests used:
[1] = tested on: T1, Plasmodium falciparum Dd2; experiment: microbe, parasite or virus in culture; parameters: species or system Plasmodium falciparum Dd2 in human erythrocytes; Asexual blood-stage parasite proliferation, SYBR Green I DNA fluorescence; settings: DD2, Erythrocyte, 72 h, read-out: IC50 values (nM)
T1 construct: Dd2
Procedure: Powershot G10 camera attached to the microscope and imported in Adobe Photoshop and Illustrator for image sizing and figure generation, respectively. SYBR Green cell proliferation assay. Compounds were tested for activity against asexual blood stage parasites using a previously described screening method (Plouffe et al., 2008). […] Toxoplasma gondii culturing and assay methods. The tachyzoite stage of Toxoplasma gondii (RH1, GFP-luc) was maintained by serial passage in human foreskin fibroblasts (HFF) cultured in Hank’s Buffered Salt Solution (HBSS) supplemented with 10% FBS, 2 mM L-glutamine, and 100 μg penicillin/100 μg streptomycin per milliliter maintained at 37 °C and 5% CO2. Parasites were harvested for use in assays by syringe lysis of infected HFF monolayers. Parasites were then centrifuged at 1,200 × g for 6 min and resuspended in HBSS supplemented with 10 mM Hepes, pH 7.0, and 1% (v/v) dialyzed FBS. All buffers were filter sterilized by passage through a […] Millipore Syringe Filter. Approximately 50,000 parasites and 5,000 HFF cell were incubated with compounds for 48 hours at 37 °C. Parasite and host cell proliferation rates were then determined using Bright-Glo® and CellTiter-Glo® (Promega). Maintenance, synchronization and imaging of erythrocytic stage P. falciparum cultures. A clonal stock of the P. falciparum line Dd2 (parental clone) was established by limiting dilution from a Dd2 isolate (MRA-156) obtained from the Malaria Research and Reference Reagent Resource Center (MR4; American Type Culture Collection), and used throughout these studies. All P. falciparum parasites were cultured in human erythrocytes and complete culturing media (CM) as previously described (Dharia et al., 2009). Highly synchronous cultures were achieved using the sorbitol synchronization method (Lambros and Vanderberg, 1979). Visualization of parasites were performed on Giemsa-stained thin blood smears under a 100x oil immersion objective on a Zeiss Primo Star light microscope. Digital images were captured using a Canon

[2] = target: T2, P. falciparum cytosolic lysyl-tRNA synthetase (PfKrs1) (Plasmodium falciparum, UniProt Q8IDJ8); experiment: Transcreener AMP fluorescence polarization aminoacylation assay with recombinant enzyme; format: biochemical
T2 construct: gene PF3D7_1350100; recombinant PF13_0262, codon-optimized, in pET-28a(+), expressed in E. coli and purified
T2 sequence (Q8IDJ8 entry or part of it): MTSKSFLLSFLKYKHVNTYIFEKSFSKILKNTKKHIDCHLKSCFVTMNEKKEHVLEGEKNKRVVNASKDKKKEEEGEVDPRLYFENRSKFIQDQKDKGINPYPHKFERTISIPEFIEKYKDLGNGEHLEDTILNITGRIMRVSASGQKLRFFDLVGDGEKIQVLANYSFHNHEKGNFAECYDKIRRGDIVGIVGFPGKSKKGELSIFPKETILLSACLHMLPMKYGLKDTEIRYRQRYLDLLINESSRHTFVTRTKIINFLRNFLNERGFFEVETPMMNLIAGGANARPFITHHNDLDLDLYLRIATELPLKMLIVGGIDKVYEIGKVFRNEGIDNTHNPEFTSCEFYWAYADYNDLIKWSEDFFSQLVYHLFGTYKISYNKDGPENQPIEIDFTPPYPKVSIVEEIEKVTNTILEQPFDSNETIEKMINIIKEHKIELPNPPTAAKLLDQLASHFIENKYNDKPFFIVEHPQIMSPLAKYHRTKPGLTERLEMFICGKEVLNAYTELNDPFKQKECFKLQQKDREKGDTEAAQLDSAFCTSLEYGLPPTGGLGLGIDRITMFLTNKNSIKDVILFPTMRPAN

[3] = tested on: T3, Saccharomyces cerevisiae BY4743Δ8; experiment: microbe, parasite or virus in culture; parameters: Yeast growth inhibition, optical density at 600 nm, dose response; settings: rich media, no added lysine, read-out: Cladosporin IC50 (µM) Rich media
T3 construct: BY4743Δ8 (eight drug-resistance genes deleted: SNQ2, PDR5, YOR1, PDR1, PDR2, PDR3, YAP1, YRM1)
Procedure: (§1) SUPPLEMENTAL FIGURES Figure S1 | Cladosporin inhibition of S. cerevisiae wild type strain BY4743 and a drug efflux mutant strain BY4743Δ8, related to Figure 1. Yeast growth in the presence of cladosporin was measured by optical density at 600 nm (OD600) and the 30% inhibitory concentration (IC30) and 50% inhibitory concentration (IC50) of cell growth were determined. Assay plates seeded with the respective strains were grown in rich medium and incubated 11 hours against a 12-point dilution series of cladosporin (0-200 µM). Data were collected from duplicate experiments, normalized with a DMSO control and expressed as the means±SD. A logistic regression curve fit algorithm on the recorded OD600 values was performed to determine the aforementioned IC30 and IC50 values. Strain BY4743Δ8, derived from BY4741 but deleted for eight genes involved in drug resistance (efflux pumps, SNQ2, PDR5, YOR1; transcription factors, PDR1, PDR2, PDR3, YAP1, YRM1) was incubated in 2.5% ethylmethanesulfonate until only 50% of the cells formed colonies. […] Of these 37, ten colonies contained nonsynonymous mutations in the KRS1 open reading frame. […] Curves were calculated by taking the 16 hr OD600 measurements and applying a logistic regression curve fit. […]

[4] = tested on: T3, Saccharomyces cerevisiae BY4743Δ8; experiment: microbe, parasite or virus in culture; parameters: Yeast growth inhibition, optical density at 600 nm, dose response; settings: synthetic media, no added lysine, read-out: Cladosporin IC50 (µM) Synthetic media
Procedure: as §1, with “Assay plates seeded with the respective strains were grown in rich medium and incubated 11 hours against a 12-point dilution series of cladosporin (0-200 µM).” left out, “colonies. A total of 2 × 10^7 mutagenized CMB970 cells were plated on two 14 cm dishes with synthetic complete medium (0.7 g/l Difco Yeast Nitrogen Base without amino acids, 0.79 g/l MPbio CSM amino acid mixture, 2% glucose) containing 50 μM cladosporin. After 4 days, 37 resistant colonies appeared.” for “colonies.”

[5] = target: T4, human lysyl-tRNA synthetase (human Krs1) (Homo sapiens, UniProt Q15046); experiment: Transcreener AMP fluorescence polarization aminoacylation assay with recombinant enzyme; weak inhibition; format: biochemical
T4 construct: gene KARS1; purified recombinant human enzyme (Origene TP300311)
T4 sequence (Q15046 2-597): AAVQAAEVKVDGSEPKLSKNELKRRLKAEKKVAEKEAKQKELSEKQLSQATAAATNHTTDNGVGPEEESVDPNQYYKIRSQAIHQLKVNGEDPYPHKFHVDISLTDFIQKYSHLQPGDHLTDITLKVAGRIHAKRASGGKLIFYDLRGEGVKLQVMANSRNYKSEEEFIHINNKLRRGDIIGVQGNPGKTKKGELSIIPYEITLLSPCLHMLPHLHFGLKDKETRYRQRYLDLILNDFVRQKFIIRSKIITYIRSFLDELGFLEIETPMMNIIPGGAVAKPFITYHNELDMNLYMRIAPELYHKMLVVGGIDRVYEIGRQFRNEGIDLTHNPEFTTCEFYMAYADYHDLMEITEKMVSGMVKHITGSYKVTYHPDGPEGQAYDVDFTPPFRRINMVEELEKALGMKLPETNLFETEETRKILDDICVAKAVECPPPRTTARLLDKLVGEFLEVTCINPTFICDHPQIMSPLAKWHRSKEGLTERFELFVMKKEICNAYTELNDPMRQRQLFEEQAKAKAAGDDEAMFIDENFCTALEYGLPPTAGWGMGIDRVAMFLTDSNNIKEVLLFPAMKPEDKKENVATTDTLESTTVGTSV

With `O[C@@H](c1cc(C(F)(F)F)nc2c(C(F)(F)F)cccc12)[C@H]1CCCCN1` (racemic) [MFQ, mefloquine] the IC50 [1] was 9 nM.

`O=C1C(O)=C([C@H]2CC[C@H](c3ccc(Cl)cc3)CC2)C(=O)c2ccccc21` [ATQ, atovaquone] gave an IC50 [1] of 0.8 ± 0.2 nM.

`C=C[C@H](C)C[C@@H]1NC(=O)[C@H](CC(C)C)N(C)C(=O)[C@H](C(C)C)NC(=O)[C@H]([C@H](OC)c2ccccc2)NC(=O)[C@H](C)NC(=O)[C@H](C[C@@H](C)CO)N(C)C(=O)C[C@@H]([C@H](O)c2cn(C(C)(C)[C@@H]3CO3)c3ccccc23)NC1=O` [CycA, cyclomarin A] (cyclo(A[Phe(βR-OMe)]V[NMeL][Nle(4R-Me-5-ene)][X1][NMeLeu(5-OH,4R)])) showed an IC50 [1] of 48.8 ± 10.1 nM.

`C[C@H]1CCC[C@H](C[C@H]2Cc3cc(O)cc(O)c3C(=O)O2)O1` [cladosporin] gave an IC50 [2] of 61 nM, an IC50 [3] of 7.92 µM and an IC50 [4] of 18.4 µM. For the same molecule, the IC50 [5] was > 20000 nM.

For `CCc1nc(N)nc(N)c1-c1ccc(Cl)cc1` [PYR, pyrimethamine], the IC50 [1] was > 10000 nM.
